Results reported in ChEMBL document CHEMBL4359841, “Late-Stage Functionalization of Platensimycin Leading to Multiple Analogues with Improved Antibacterial Activity in Vitro and in Vivo” (2019).
Converted amounts (≈) assume the structure as drawn. The source made the active and inactive calls. Unless noted, the rule behind the calls is not given here.

Key:
[1] = system: Staphylococcus aureus; experiment: Inhibition of FabB/FabF in methicillin-sensitive Staphylococcus aureus assessed as antibacterial activity after 16 hrs by agar dilution method
[2] = system: Staphylococcus aureus; experiment: Antibacterial activity against methicillin-resistant Staphylococcus aureus infected in C57BL/6J mouse model of peritonitis assessed as mouse survival at 10 mg/kg, ip dosed at 1 hr and 5 hrs post infection and measured for 7 days relative to control; type: functional
[3] = system: Staphylococcus aureus; experiment: Antibacterial activity against methicillin-resistant Staphylococcus aureus infected in C57BL/6J mouse model of peritonitis assessed as mouse survival at 20 mg/kg, ip dosed at 1 hr and 5 hrs post infection and measured for 7 days relative to control; type: functional
[4] = system: Staphylococcus aureus; experiment: Inhibition of FabB/FabF in methicillin-resistant Staphylococcus aureus assessed as antibacterial activity at 5 ug/disk after 18 hrs by agar disk diffusion method
[5] = system: Staphylococcus aureus; experiment: Inhibition of FabB/FabF in Staphylococcus aureus ATCC 29213 assessed as antibacterial activity after 16 hrs by agar dilution method
[6] = system: Staphylococcus aureus; experiment: Inhibition of FabB/FabF in methicillin-resistant Staphylococcus aureus assessed as antibacterial activity after 16 hrs by agar dilution method
[7] = system: Staphylococcus aureus; experiment: Inhibition of FabB/FabF in methicillin-resistant Staphylococcus aureus assessed as antibacterial activity at 2 ug/disk after 18 hrs by agar disk diffusion method
[8] = system: Staphylococcus aureus; experiment: Antibacterial activity against methicillin-resistant Staphylococcus aureus infected in BALB/c mouse model of skin wound assessed as retainment of dermis layers at 2 mg administered topically as ointment twice daily for 7 days and measured and after 24 hrs by HE staining analysis; type: functional, organism-based
[9] = system: Staphylococcus aureus; experiment: Antibacterial activity against methicillin-resistant Staphylococcus aureus infected in BALB/c mouse model of skin wound assessed as reduction in detachment of epidermis from dermis at 2 mg administered topically as ointment twice daily for 7 days and measured after 24 hrs by visual inspection method; type: functional, organism-based
[10] = system: Staphylococcus aureus; experiment: Antibacterial activity against methicillin-resistant Staphylococcus aureus infected in BALB/c mouse model of skin wound assessed as reduction in appearance of secondary scald at 2 mg administered topically as ointment twice daily for 7 days and measured after 24 hrs by visual inspection method; type: functional, organism-based
[11] = system: Staphylococcus aureus; experiment: Antibacterial activity against methicillin-resistant Staphylococcus aureus infected in BALB/c mouse model of skin infection assessed as bacterial load in skin lesions at 2 mg administered topically as ointment twice daily for 7 days and measured at 24 hrs post last dose (7.9 +/- 0.9 x 10^8 CFU/g); type: functional
[12] = system: Staphylococcus aureus; experiment: Antibacterial activity against methicillin-resistant Staphylococcus aureus infected in BALB/c mouse model of skin wound assessed as retainment of fat layers at 2 mg administered topically as ointment twice daily for 7 days and measured after 24 hrs by HE staining analysis; type: functional, organism-based

| Structure (SMILES) | MIC [1] [µg/mL] | survival at 10 mg/kg [2] [%] | survival at 20 mg/kg [3] [%] | antibacterial activity (disk diffusion, qualitative) [4] | MIC [5] [µg/mL] | MIC [6] [µg/mL] | inhibition [7] | Activity [8] | Activity [9] | Activity [10] | Activity [11] [×10⁶ CFU/g] | Activity [12] | Survival [2] |
| --- | --- | --- | --- | --- | --- | --- | --- | --- | --- | --- | --- | --- | --- |
| Cc1ccc(SC2=C[C@]34C[C@H]5C[C@H](O[C@@]5(C)C3)[C@H]4[C@](C)(CCC(=O)Nc3c(O)ccc(C(=O)O)c3O)C2=O)cc1 | 0.25 (≈ 0.444 µM) | > 60 | 80 | Active | 0.5 (≈ 0.887 µM) | 0.25 (≈ 0.444 µM) | Active | – | – | – | – | – | – |
| C/C(=C\C(=O)OCCCCCCCCC(=O)O)C[C@@H]1OC[C@H](C[C@@H]2O[C@H]2[C@@H](C)[C@H](C)O)[C@@H](O)[C@H]1O [MUPIROCIN] | – | – | – | – | – | – | – | Active | Active | Active | 6.5 | Active | – |
| C[C@]12C[C@@]34C=C(SCc5ccccc5)C(=O)[C@@](C)(CCC(=O)Nc5c(O)ccc(C(=O)O)c5O)[C@@H]3[C@H](C[C@@H]1C4)O2 | 0.5 (≈ 0.887 µM) | > 60 | 80 | Active | 0.5 (≈ 0.887 µM) | 0.5 (≈ 0.887 µM) | – | – | – | – | – | – | – |
| C[C@]12C[C@@]34C=C(Sc5ccccn5)C(=O)[C@@](C)(CCC(=O)Nc5c(O)ccc(C(=O)O)c5O)[C@@H]3[C@H](C[C@@H]1C4)O2 | 2 (≈ 3.63 µM) | – | – | Active | 2 (≈ 3.63 µM) | 2 (≈ 3.63 µM) | – | – | – | – | – | – | inactive |
